Source: patent US7358258B2, “Prodrugs of an ERK protein kinase inhibitor” (Vertex Pharmaceuticals Incorporated, priority 2004, dated 2008)
Converted amounts (≈) assume the structure as drawn. Counter-ions that a name gives are not always drawn. Blank lines part the entries; values can stand above or below the molecule they belong to.

Test: Water solubility at the designated pH
Assay type: physicochemical
Text: As described herein, the present compounds are useful as prodrugs and, accordingly, impart improved physical and/or physiological characteristics over the parent compound. Such characteristics include half-life and water solubility. In certain embodiments, a compound of the present invention provides improvement with regard to one or more physical or physiological characteristics. In other embodiments, a compound of the present invention imparts improvement with regard to one or more physical and physiological characteristics. A summary of the results of comparison between certain compounds of the present invention and the parent compound is set forth in Table 3 below wherein all pharmacokinetic data reported was obtained in rat.
As used herein, the phrase “Relative AUC” refers to the ration of the area under the curve for a compound of the present invention and the area under the curve for the parent compound. Unless otherwise indicated, the data was obtained for the designated compound as the free base. The term “T½ (hr)” refers to the half life of the compound in hours. As used in Table 3, the term “Solubility” relates to the water solubility of the designated compound in mg per mL at the designated pH.

SMILES: CC[C@H](COC(C)=O)Nc1ncc(C)c(-c2c[nH]c(C(=O)N[C@H](COC(C)=O)c3cccc(Cl)c3)c2)n1 [I-1 (HCl salt)]
solubility (water solubility at pH 2.2): 19000 µg/mL

SMILES: CC[C@H](COC(=O)[C@@H](NC)C(C)C)Nc1ncc(C)c(-c2c[nH]c(C(=O)N[C@H](COC(=O)[C@@H](NC)C(C)C)c3cccc(Cl)c3)c2)n1 [I-20 (HCl salt), 3-Methyl-2-methylamino-butyric acid 2-(4-{5-[1-(3-chloro-phenyl)-2-(3-methyl-2-methylamino-butyryloxy)-ethylcarbamoyl]-1H-pyrrol-3-yl}-5-methyl-pyrimidin-2-ylamino)-butyl ester, tris HCl salt]
solubility (water solubility at pH 3.8): 7710 µg/mL

SMILES: CC[C@H](COC(=O)COCCOC)Nc1ncc(C)c(-c2c[nH]c(C(=O)N[C@H](COC(=O)COCCOC)c3cccc(Cl)c3)c2)n1 [I-21 Ms salt]
solubility (water solubility at pH 2.5): 12400 µg/mL

SMILES: CC[C@H](COP(=O)(O)O)Nc1ncc(C)c(-c2c[nH]c(C(=O)N[C@H](COP(=O)(O)O)c3cccc(Cl)c3)c2)n1 [I-23 (Na salt)]
solubility (water solubility at pH 7.15): 3800 µg/mL

SMILES: CCC(CO)Nc1ncc(C)c(-c2c[nH]c(C(=O)NC(CO)c3cccc(Cl)c3)c2)n1 (centres unmarked) [Parent, 4-[2-(1-hydroxymethyl-propylamino)-5-methyl-pyrimidin-4-yl]-1H-pyrrole-2-carboxylic acid [1-(3-chloro-phenyl)-2-hydroxy-ethyl]-amide, reference compound]
solubility (water solubility at pH 1): 4700 µg/mL (≈ 10.6 mM)
solubility (water solubility at pH 7): 15 µg/mL (≈ 0.0338 mM)

Now from value to molecule:

solubility (water solubility at pH 3.3): 11500 µg/mL (≈ 17.9 mM)
SMILES: CC[C@H](COC(=O)[C@@H](N)C(C)C)Nc1ncc(C)c(-c2c[nH]c(C(=O)N[C@H](COC(=O)[C@@H](N)C(C)C)c3cccc(Cl)c3)c2)n1 [Compound I-10, 2-(S)-Amino-3-methyl-butyric acid 2-(4-{5-[2-(2-(S)-amino-3-methyl-butyryloxy)-1-(3-chloro-(S)-phenyl)-ethylcarbamoyl]-1H-pyrrol-3-yl}-5-methyl-pyrimidin-2-ylamino)-(S)-butyl ester]

solubility (water solubility at pH 6.87): 12600 µg/mL (≈ 19.6 mM)
SMILES: CC[C@H](COC(=O)CCC(=O)O)Nc1ncc(C)c(-c2c[nH]c(C(=O)N[C@H](COC(=O)CCC(=O)O)c3cccc(Cl)c3)c2)n1 [Compound I-18, Succinic acid, mono-[2-(4-{5-[2-(3-carboxy-propionyloxy)-1-(3-chloro-(S)-phenyl)-ethylcarbamyl]-1H-pyrrol-3-yl}-5-methyl-pyrimidin-2-ylamino)-(S)-butyl]ester]
